The structures appear in SMILES notation.

This test concerns the target T1, Macrophage migration inhibitory factor (Homo sapiens, UniProt P14174).
T1 sequence (P14174 whole entry): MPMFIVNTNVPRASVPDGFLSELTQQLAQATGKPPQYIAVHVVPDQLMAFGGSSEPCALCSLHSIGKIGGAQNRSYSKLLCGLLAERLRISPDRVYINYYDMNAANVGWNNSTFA
The test is described as follows: MIF Enzymatic Assay. Here is the method: Assays were performed in small-volume clear-bottom black 96 or 384-well polystyrene plates (Greiner Bio-One). First, 2 μL of the enzyme solution containing 6 nM of MIF in DPBS, 0.025% w/v BSA, and 300 μM CHAPS was dispensed onto sample and negative control wells using Multidrop Combi with metallic tip cassettes (Thermo Fisher Scientific) previously treated with Sigmacote. Then, 2 μL of the same buffer without MIF was dispensed onto positive control wells. […] In order to remove bubbles, the plate was centrifuged in an Allegra 25R centrifuge (Beckman Coulter, Inc., Brea, CA) at 1000 rpm for 2 min at room temperature. Then, the plate was read in an EnVision. Final concentrations of enzyme and substrate were 3 nM and 1.5 mM, respectively. Initial rates were calculated for each well as the slope of the absorbance progress curve.
In the case of `COc1cc(N2CCC(O)C2)ccc1C(=O)NCc1nnc(-c2cccs2)o1` (stereo not drawn) [US11884682, Compound 78], the IC50 – broadly, the concentration at which inhibition is half-maximal – came to 575 nM. The compound `COc1cc(OC2CCNC2)ccc1C(=O)NCc1nnc(-c2cccs2)o1` (stereo not drawn) [US11884682, Compound 81] registered an IC50 of 2510 nM. Turning to `COc1cc(NCCO)ccc1C(=O)NCc1nnc(-c2cccs2)o1` [US11884682, Compound 79], the IC50 turned out to be 708 nM.

(Values after BindingDB's records for patent US11884682 (Nanjing Immunophage Biotech Co., 2024).)
